Columns and labels:
Escherchia coli = assay: disk diffusion assay on LB-agar plates; type: cell-based; conditions: 10 µg in 30 µL 50% MeOH per disk
Method: (§1) The antifungal activity of the compounds according to the present invention, in particular hassallidin A and hassallidin B, was verified for Aspergillus fumigatus and Candida albicans by minimum inhibitory concentration (MIC) data in a serial dilution test. For each fungus six testing wells of a microtiter plate were prepared with 240 µL medium (Sigma RPMI-1640), 10 µL inoculum suspension and 50 µL fungicide solution (50% MeOH) of different concentrations. Inoculum preparation was carried out by guideline of NCCLS.^25 The fungicide solution preparation took place in a series of twofold dilutions from a stock solution of 92 µg/mL starting with 4.6 µg/50 µL down to 0.14 µg/50 µL. One well was prepared without antifungal agent for unhindered growth as control. The microtiter plates were incubated for Candida albicans and Aspergillus fumigatus at 35 °C for 24 h and 48 h, respectively. Tests were run in triplicates. Inhibition of growth was assessed by comparing the fungal growth of the test samples with the control well by determination of optical density at 595 nm in a microplate reader. The concentration of the well at highest dilution that was still free from growth was assigned the minimum inhibitory concentration (MIC in µg/mL). […] No activities were observed by using Bacillus subtilis, Streptomyces versicolor or Escherchia coli in disk diffusion assays on LB-agar plates with 10 µg hassallidin A in 30 µL 50% MeOH per disk.

Streptomyces versicolor = assay: disk diffusion assay on LB-agar plates; type: cell-based; conditions: 10 µg in 30 µL 50% MeOH per disk
Method: as §1

Bacillus subtilis = assay: disk diffusion assay on LB-agar plates; type: cell-based; conditions: 10 µg in 30 µL 50% MeOH per disk
Method: as §1

ATCC 6258 (QC) = assay: microdilution assay (NCCLS), inhibitory concentration (IC); type: cell-based, Candida krusei; conditions: Table 4 series, RPMI-1640 medium
[1] = tested on: Cryptococcus neoformas RKI 18/05; assay: as above; type: cell-based; conditions: RPMI-1640 medium
Method: More specifically, a determination of inhibitory concentration (IC) of hassallidin A and hassallidin B for various fungi, Candida species and Candida strains were performed with different media (RPMI-1640 or SAB or AM3) in a microdilution assay by following the guidelines in NCCLS documents M^38-P^25 and M27-A2^26 carried out as follows Each substance was dissolved with 100% dimethyl sulfoxide (Serva, Heidelberg, Germany) to give a stock solution of 3.2 mg/ml followed by nine log2 dilution steps with the solvent. This served as a 100-fold concentrated dilution series ranging from 1.6 mg/ml to 0.003 mg/ml of the test substance. The final concentration of the test substance was 16 µg/ml to 0.031 µg/ml.
Therefore the 100-fold concentrated dilution series (with 100% DMSO) was diluted to the final concentration by two dilution steps: • (1) Each concentration of the 100-fold concentrated substance was diluted with test medium for 1:50 (for ex.: adding of 13 µl of the test substance to 637 µl test medium). • (2) 100 µl of each 1:50 diluted concentration was filled in a row of wells of a microtitre plate. One well was without the substance but with the 1:50 diluted solvent serving as growth control.
A further 1:2 dilution of the antifungal was made by the inoculation of each well with 100 µl of the test organism, which was suspended in the test medium. The remaining well of the row was used for sterility control of the medium. The inoculum was strictly prepared according the NCCLS^25 guidelines, resulting in […] for Candida-species and Cryptococcus neoformans. For hyphomycetes CFU's were tenfold higher (see NCCLS). ^26 The growth of the hyphomycetes respectively the inhibition was measured by visual reading with the help of a reading mirror; scoring was done according to NCCLS :^26 score 0 corresponds to a optical clear well or an IC95 or higher, score 1 corresponds to an inhibition of 80 percent (IC80) and the score 2 of the NCCLS definition corresponds to the IC50 values in the tables. […] The percent inhibition IC50, IC80 or IC95 (corresponding the scores of 2, 1 and 0) was calculated by the following formula: (100−[(ODof the well−ODof the medium)] × 100)/((ODof the growth control−ODof the medium).) [formula] Table 3. Test series for determining IC values of hassallidin A and B in different media using Candida albicans and Candida krusei. The IC values were measured after 24 h and 48 h at 30 °C.

[2] = tested on: Jurkat ATCC-TIB-152 (human acute T cell leukemia) celline; assay: cytotoxicity, cell viability by XTT test (1st test); type: cell-based
Method: Furthermore, the compounds according to the present invention were tested in relation to their activity against cancer cell lines. They were tested for cytotoxicity by determining the IC50-values. The IC50-value was determined by the procedure discrided in Filip P, Anke T, Sterner O, 5-(2'-oxoheptadecyl)-resorcinol and 5-(2'-oxononadecyl)-resorcinol, cytotoxic metabolites from a wood-inhabiting basidiomycete, ZNaturforsch [C]. 2002 Nov-Dec;57(11-12):1004-8. Sample preparation was carried out as follows: 1 st test The compound (hassalidin B) (20 µg) was dissolved in 4 µl DMSO and 16 µl H2O to give a concentration of 1 mg/ml. 1 µl of this solution and 0,5 µl of this solution were used to inoculate 200 µl culture medium each, thus making up a concentration of hassallidin B of 5µg/ml and 2,5 µ/ml, respectively. Thereafter 68 µl H2O were added to 17 µl of the solution of 1 mg/ml hassalidin B to give a concentration of 200 µg/ml, and again 1 µl and 0,5 µl of this solution were used to inoculate 200 µl of culture medium each thus making up a final concentration of hassallidin B of 1 µg/ml and 0,5 µg/ml, respectively. […] Cell viability of cell growing was measured by the XTT test (Boehringer, Mannheim/Roche) as discribed in the product information. […]

| Substance | activity in disk diffusion assay (Escherchia coli) | activity in disk diffusion assay (Streptomyces versicolor) | activity in disk diffusion assay (Bacillus subtilis) | IC80 (ATCC 6258 (QC); 35°C/24h) [µg/mL] | IC95 (ATCC 6258 (QC); 35°C/24h) [µg/mL] | IC80 (ATCC 6258 (QC); 35°C/48h) [µg/mL] | IC50 ([1]; 35°C/24h, visual) | IC80 ([1]; 35°C/24h, visual) | IC95 ([1]; 35°C/24h, visual) | IC50 ([1]; 35°C/48h) [µg/mL] | IC80 ([1]; 35°C/48h) [µg/mL] | IC95 ([1]; 35°C/48h) [µg/mL] | IC50-value [2] [µg/mL] |
| --- | --- | --- | --- | --- | --- | --- | --- | --- | --- | --- | --- | --- | --- |
| hassallidin A | No activities | No activities | No activities | 8 | 8 | 16 | 4 (visual) µg/mL | 4 (visual) µg/mL | 4 (visual) µg/mL | 4 | 4 | 4 | – |
| hassallidin B | – | – | – | – | – | – | – | – | – | – | – | – | 0.2 |
